Test results from PubChem BioAssay AID2060905 (Molecular Pharmacology Branch, DTP, NCI, 2025).

System: 282377-053-R-J1-PDC complex spheroid viability
Assay: Anticancer human tumor 282377-053-R-J1-PDC patient-derived colon adenocarcinoma cell line growth inhibition [RAS]
Settings: for viability, T/C: stronger effect = lower value
Method in brief: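 Multi-cell-type spheroids: tumor cells plus HUVEC endothelial cells and mesenchymal stem cells. RAS-pathway inhibitors were combined with targeted agents, each dosed in half-log steps down from clinical Cmax, or from 10 microM when Cmax was unknown.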

[1] = curve of first compound, second compound 0.00316 µM
[2] = curve of first compound, second compound 0.01 µM
[3] = curve of first compound, second compound 0.0316 µM
[4] = curve of first compound, second compound 0.1 µM
[5] = curve of first compound, second compound 0.316 µM
[6] = curve of first compound, second compound 1 µM
[7] = second compound 0.00316 µM, first compound 0.0316 µM
[8] = second compound 0.00316 µM, first compound 0.1 µM
[9] = second compound 0.01 µM, first compound 0.0316 µM
[10] = second compound 0.01 µM, first compound 0.1 µM
[11] = second compound 0.0316 µM, first compound 0.0316 µM
[12] = second compound 0.0316 µM, first compound 0.1 µM
[13] = second compound 0.0316 µM, first compound 0.316 µM
[14] = second compound 0.0316 µM, first compound 1 µM
[15] = second compound 0.1 µM, first compound 0.0316 µM
[16] = second compound 0.1 µM, first compound 0.1 µM
[17] = second compound 0.1 µM, first compound 0.316 µM
[18] = second compound 0.1 µM, first compound 1 µM
[19] = second compound 0.316 µM, first compound 0.0316 µM
[20] = second compound 0.316 µM, first compound 0.1 µM
[21] = second compound 0.316 µM, first compound 0.316 µM
[22] = second compound 0.316 µM, first compound 1 µM
[23] = second compound 1 µM, first compound 0.0316 µM
[24] = second compound 1 µM, first compound 0.1 µM
[25] = second compound 1 µM, first compound 0.316 µM
[26] = second compound 1 µM, first compound 1 µM
[27] = second compound 0.0316 µM, first compound 0.00316 µM
[28] = second compound 0.0316 µM, first compound 0.01 µM
[29] = second compound 0.1 µM, first compound 0.00316 µM
[30] = second compound 0.1 µM, first compound 0.01 µM
[31] = second compound 0.316 µM, first compound 0.00316 µM
[32] = second compound 0.316 µM, first compound 0.01 µM
[33] = second compound 1 µM, first compound 0.00316 µM
[34] = second compound 1 µM, first compound 0.01 µM
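Also: spheroids exposed to agents for seven days before readout.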
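For viability, T/C in this document: luminescence viability as percent of DMSO vehicle control wells.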

Compound: CC(Nc1ccc2c(c1)OCCn1cc(N3C(=O)OCC3C(F)F)nc1-2)C(N)=O (centres undefined) + C=CC(=O)N1CCN(c2nc(OCC3CCCN3C)nc3c(F)c(-c4nc(N)cc(C)c4C(F)(F)F)c(Cl)cc23)C(C)C1
- IC50 [1]: > 10000 nM
- IC50 [2]: > 10000 nM
- IC50 [3]: > 10000 nM
- IC50 [4]: > 10000 nM
- IC50 [5]: > 10000 nM
- IC50 [6]: > 10000 nM
- viability, T/C [7]: 100%
- viability, T/C [8]: 93.8%
- viability, T/C (second compound 0.00316 µM, first compound 0.316 µM): 94.3%
- viability, T/C (second compound 0.00316 µM, first compound 1 µM): 82.6%
- viability, T/C (second compound 0.00316 µM, first compound 3.16 µM): 78.9%
- viability, T/C (second compound 0.00316 µM, first compound 10 µM): 70.1%
- viability, T/C [9]: 105%
- viability, T/C [10]: 89.1%
- viability, T/C (second compound 0.01 µM, first compound 0.316 µM): 79.6%
- viability, T/C (second compound 0.01 µM, first compound 1 µM): 82.4%
- viability, T/C (second compound 0.01 µM, first compound 3.16 µM): 89.9%
- viability, T/C (second compound 0.01 µM, first compound 10 µM): 81.5%
- viability, T/C [11]: 91.1%
- viability, T/C [12]: 86.9%
- viability, T/C [13]: 87.1%
- viability, T/C [14]: 88.9%
- viability, T/C (second compound 0.0316 µM, first compound 3.16 µM): 77.6%
- viability, T/C (second compound 0.0316 µM, first compound 10 µM): 86.1%
- viability, T/C [15]: 101%
- viability, T/C [16]: 94.1%
- viability, T/C [17]: 95.5%
- viability, T/C [18]: 82.2%
- viability, T/C (second compound 0.1 µM, first compound 3.16 µM): 102%
- viability, T/C (second compound 0.1 µM, first compound 10 µM): 76.7%
- viability, T/C [19]: 104%
- viability, T/C [20]: 92.8%
- viability, T/C [21]: 100%
- viability, T/C [22]: 94.3%
- viability, T/C (second compound 0.316 µM, first compound 3.16 µM): 78.2%
- viability, T/C (second compound 0.316 µM, first compound 10 µM): 78.4%
- viability, T/C [23]: 105%
- viability, T/C [24]: 102%
- viability, T/C [25]: 92%
- viability, T/C [26]: 93.8%
- viability, T/C (second compound 1 µM, first compound 3.16 µM): 76%
- viability, T/C (second compound 1 µM, first compound 10 µM): 83.8%

Compound: Nc1ccn(C2OC(CO)C(O)C2(F)F)c(=O)n1 (centres undefined) + C#Cc1c(F)ccc2cc(O)cc(-c3ncc4c(N5CC6CCC(C5)N6)nc(OCC56CCCN5CC(F)C6)nc4c3F)c12
- IC50 [3]: 633 nM
- IC50 [4]: 251 nM
- IC50 [5]: 440 nM
- IC50 [6]: 258 nM
- IC50 (curve of first compound, second compound 3.16 µM): 544 nM
- IC50 (curve of first compound, second compound 10 µM): > 1000 nM
- viability, T/C [27]: 133%
- viability, T/C [28]: 117%
- viability, T/C [11]: 85.4%
- viability, T/C [12]: 79.5%
- viability, T/C [13]: 59%
- viability, T/C [14]: 43.1%
- viability, T/C [29]: 96%
- viability, T/C [30]: 89.7%
- viability, T/C [15]: 101%
- viability, T/C [16]: 76.8%
- viability, T/C [17]: 44.6%
- viability, T/C [18]: 37.9%
- viability, T/C [31]: 115%
- viability, T/C [32]: 92.5%
- viability, T/C [19]: 99.4%
- viability, T/C [20]: 77%
- viability, T/C [21]: 51.1%
- viability, T/C [22]: 42.3%
- viability, T/C [33]: 100%
- viability, T/C [34]: 101%
- viability, T/C [23]: 107%
- viability, T/C [24]: 69.6%
- viability, T/C [25]: 51.3%
- viability, T/C [26]: 40.2%
- viability, T/C (second compound 3.16 µM, first compound 0.00316 µM): 89.8%
- viability, T/C (second compound 3.16 µM, first compound 0.01 µM): 86%
- viability, T/C (second compound 3.16 µM, first compound 0.0316 µM): 89.1%
- viability, T/C (second compound 3.16 µM, first compound 0.1 µM): 73.1%
- viability, T/C (second compound 3.16 µM, first compound 0.316 µM): 56.6%
- viability, T/C (second compound 3.16 µM, first compound 1 µM): 43.3%
- viability, T/C (second compound 10 µM, first compound 0.00316 µM): 99.2%
- viability, T/C (second compound 10 µM, first compound 0.01 µM): 99.3%
- viability, T/C (second compound 10 µM, first compound 0.0316 µM): 92.8%
- viability, T/C (second compound 10 µM, first compound 0.1 µM): 69.8%
- viability, T/C (second compound 10 µM, first compound 0.316 µM): 62.5%
- viability, T/C (second compound 10 µM, first compound 1 µM): 54.5%

Compound: CC(C)n1nc(-c2ccc3oc(N)nc3c2)c2c(N)ncnc21 + C=CC(=O)N1CCN(c2nc(OCC3CCCN3C)nc3c(F)c(-c4nc(N)cc(C)c4C(F)(F)F)c(Cl)cc23)C(C)C1
- IC50 [1]: > 100 nM
- IC50 [2]: 89.8 nM
- IC50 [3]: 94.1 nM
- IC50 [4]: 85.9 nM
- IC50 [5]: > 100 nM
- IC50 [6]: > 100 nM
- viability, T/C (second compound 0.00316 µM, first compound 0.000316 µM): 96.6%
- viability, T/C (second compound 0.00316 µM, first compound 0.001 µM): 86.9%
- viability, T/C (second compound 0.00316 µM, first compound 0.00316 µM): 80%
- viability, T/C (second compound 0.00316 µM, first compound 0.01 µM): 87.7%
- viability, T/C [7]: 62.8%
- viability, T/C [8]: 54.5%
- viability, T/C (second compound 0.01 µM, first compound 0.000316 µM): 85.3%
- viability, T/C (second compound 0.01 µM, first compound 0.001 µM): 81%
- viability, T/C (second compound 0.01 µM, first compound 0.00316 µM): 74.5%
- viability, T/C (second compound 0.01 µM, first compound 0.01 µM): 87%
- viability, T/C [9]: 68.8%
- viability, T/C [10]: 47.8%
- viability, T/C (second compound 0.0316 µM, first compound 0.000316 µM): 92.2%
- viability, T/C (second compound 0.0316 µM, first compound 0.001 µM): 98.3%
- viability, T/C [27]: 87.5%
- viability, T/C [28]: 82.5%
- viability, T/C [11]: 97.5%
- viability, T/C [12]: 47.7%
- viability, T/C (second compound 0.1 µM, first compound 0.000316 µM): 81.7%
- viability, T/C (second compound 0.1 µM, first compound 0.001 µM): 105%
- viability, T/C [29]: 91%
- viability, T/C [30]: 78.3%
- viability, T/C [15]: 77.5%
- viability, T/C [16]: 45.7%
- viability, T/C (second compound 0.316 µM, first compound 0.000316 µM): 110%
- viability, T/C (second compound 0.316 µM, first compound 0.001 µM): 103%
- viability, T/C [31]: 109%
- viability, T/C [32]: 68.3%
- viability, T/C [19]: 61.9%
- viability, T/C [20]: 48.6%
- viability, T/C (second compound 1 µM, first compound 0.000316 µM): 99.9%
- viability, T/C (second compound 1 µM, first compound 0.001 µM): 85.1%
- viability, T/C [33]: 112%
- viability, T/C [34]: 67.7%
- viability, T/C [23]: 55.4%
- viability, T/C [24]: 61.9%

Compound: CC(=O)OC12COC1CC(O)C1(C)C(=O)C(O)C3=C(C)C(OC(=O)C(O)C(NC(=O)OC(C)(C)C)c4ccccc4)CC(O)(C(OC(=O)c4ccccc4)C21)C3(C)C (centres undefined)
- viability, T/C (compound 0.1 µM): 33.6% [middle of 4 runs]
- viability, T/C (compound 0.316 µM): 37.9% [middle of 4 runs]
- IC50 (curve of compound): < 31.6 nM
